From PubChem BioAssay (NCI)
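Interpolation was linear, between the two tested concentrations surrounding the appropriate level; five concentrations were tested over 48 hours in 96-well plates. TGI marks complete inhibition of growth.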

Legend:
Experiment in all cases: NCI anticancer screen, dose series, 48 h
COLO 205 colon = test system: COLO 205 colon
HCT-116 colon = test system: HCT-116 colon
K-562 leukemia = test system: K-562 leukemia
M14 melanoma = test system: M14 melanoma
MDA-MB-435 = test system: MDA-MB-435
NCI-H226 lung = test system: NCI-H226 lung
OVCAR-5 ovarian = test system: OVCAR-5 ovarian
RPMI-8226 leukemia = test system: RPMI-8226 leukemia
SW-620 colon = test system: SW-620 colon
TK-10 renal = test system: TK-10 renal
DLD-1 colon = test system: DLD-1 colon
DMS 114 small cell lung = test system: DMS 114 small cell lung
DMS 273 small cell lung = test system: DMS 273 small cell lung
HOP-18 NSCLC = test system: HOP-18 NSCLC
KM20L2 colon = test system: KM20L2 colon
LXFL 529 NSCLC = test system: LXFL 529 NSCLC
M19-MEL melanoma = test system: M19-MEL melanoma
XF 498 CNS = test system: XF 498 CNS

SMILES | TGI (COLO 205 colon) | TGI (HCT-116 colon) | TGI (K-562 leukemia) | TGI (M14 melanoma) | TGI (MDA-MB-435) | TGI (NCI-H226 lung) | TGI (OVCAR-5 ovarian) | TGI (RPMI-8226 leukemia) | TGI (SW-620 colon) | TGI (TK-10 renal) | TGI (DLD-1 colon) | TGI (DMS 114 small cell lung) | TGI (DMS 273 small cell lung) | TGI (HOP-18 NSCLC) | TGI (KM20L2 colon) | TGI (LXFL 529 NSCLC) | TGI (M19-MEL melanoma) | TGI (XF 498 CNS)
Nc1ccc2c(O)cc(=O)[nH]c2n1 | > 100 µM | > 100 µM | > 100 µM | > 100 µM | > 100 µM | > 100 µM | > 100 µM | > 100 µM | > 100 µM | > 100 µM | – | – | – | – | – | – | – | –
CC[C@H](C)[C@H]1NC(=O)[C@@H](NC(=O)[C@@H](CC(C)C)N(C)C(=O)C2CCCN2C(=O)[C@H](C)O)[C@@H](C)OC(=O)[C@H](Cc2ccc(OC)cc2)N(C)C(=O)[C@@H]2CCCN2C(=O)[C@H](CCCCNC(=O)OCc2ccccc2)NC(=O)[C@H](C)C(=O)[C@H](C(C)C)OC(=O)C[C@@H]1O (stereo partly specified) | 18.9 µM | 20.2 µM | > 25 µM | > 25 µM | > 25 µM | > 25 µM | > 25 µM | 19.7 µM | > 25 µM | > 25 µM | – | – | – | – | – | – | – | –
O=C(NC1(c2cc3ccccc3s2)CCCCC1)C1CCC1 | > 100 µM | > 100 µM | > 100 µM | > 100 µM | > 100 µM | > 100 µM | > 100 µM | > 100 µM | > 100 µM | > 100 µM | – | – | – | – | – | – | – | –
O=c1[nH]c(=O)n(COCc2ccccc2)c2ccsc12 | > 100 µM | > 100 µM | > 100 µM | > 100 µM | > 100 µM | > 100 µM | > 100 µM | > 100 µM | > 100 µM | > 100 µM | – | – | – | – | – | – | – | –
CCN(CC)C(=O)Cc1c(C(=O)N(CC)CC)c(=O)nc2sccn12 | > 100 µM | > 100 µM | > 100 µM | > 100 µM | – | > 100 µM | – | > 100 µM | > 100 µM | > 100 µM | > 100 µM | > 100 µM | > 100 µM | > 100 µM | > 100 µM | > 100 µM | > 100 µM | > 100 µM
N#Cc1cc(C#N)c(N)nc1N | > 100 µM | > 100 µM | > 100 µM | > 100 µM | > 100 µM | > 100 µM | > 100 µM | > 100 µM | > 100 µM | > 100 µM | – | – | – | – | – | – | – | –
N#Cc1nc(CCN2C(=O)c3ccccc3C2=O)oc1N | > 100 µM | > 100 µM | > 100 µM | > 100 µM | > 100 µM | > 100 µM | > 100 µM | > 100 µM | > 100 µM | > 100 µM | – | – | – | – | – | – | – | –
CC(=O)Nc1c(S(=O)(=O)c2ccccc2)c(C)c(C)n1CCN(C)C | > 100 µM | > 100 µM | > 100 µM | > 100 µM | > 100 µM | > 100 µM | > 100 µM | > 100 µM | > 100 µM | > 100 µM | – | – | – | – | – | – | – | –
CCOc1cc(C2SCC(=O)N2c2ccc(Oc3ccc(Cl)cc3)c(Cl)c2)ccc1O (stereo unspecified) | 41.3 µM | 25.1 µM | > 100 µM | 56.1 µM | 42 µM | 31.1 µM | 53.3 µM | 80.1 µM | 37.7 µM | 34.2 µM | – | – | – | – | – | – | – | –
CN(C)CCCN1C(=S)N(CCCN(C)C)c2c3ccccc3nc3c([N+](=O)[O-])ccc1c23 | 4.8 µM | 16 µM | > 37.6 µM | 26.8 µM | 23.7 µM | 24.1 µM | 39.5 µM | 50.6 µM | 17.4 µM | 24.2 µM | – | – | – | – | – | – | – | –
O=c1[nH]c(Cc2ccccc2)nc2c1sc1nc3ccccc3n12 | > 100 µM | > 100 µM | > 100 µM | > 100 µM | > 100 µM | > 100 µM | > 100 µM | > 100 µM | > 100 µM | > 100 µM | – | – | – | – | – | – | – | –
CC#CC(O)(C(=O)OCCCN(C)C)C1CCCCC1 (stereo unspecified) | > 100 µM | > 100 µM | > 100 µM | > 100 µM | > 100 µM | > 100 µM | > 100 µM | > 100 µM | > 100 µM | > 100 µM | – | – | – | – | – | – | – | –
CCCCCCCCCCCCCCCCCc1cccc(OCOCCOC)c1C(=O)O | 39.7 µM | 39.1 µM | > 83 µM | 35.9 µM | 40.9 µM | 32.3 µM | 35 µM | > 72.7 µM | 44.3 µM | 34.3 µM | – | – | – | – | – | – | – | –
N=C1OC(CN2CCN(c3ccccc3)CC2)CN1C(=S)Nc1ccccc1 (stereo unspecified) | > 100 µM | > 100 µM | > 100 µM | > 100 µM | > 100 µM | > 100 µM | > 100 µM | > 100 µM | > 100 µM | > 100 µM | – | – | – | – | – | – | – | –
c1ccc2c(Cc3[nH]c4ccccc4c3Cc3c[nH]c4ccccc34)c[nH]c2c1 | 3.99 µM | 3.47 µM | 10.5 µM | 6.71 µM | 5.16 µM | 24.5 µM | 8.93 µM | 12.2 µM | 5.59 µM | 8.1 µM | – | – | – | – | – | – | – | –
CN(C)CCCc1cccc2[nH]c3c(c12)CN(C)CC3 | > 100 µM | > 100 µM | > 100 µM | 33.9 µM | > 100 µM | > 100 µM | > 100 µM | > 100 µM | > 100 µM | > 100 µM | – | – | – | – | – | – | – | –
CC(C)C1C(=O)N(c2c(F)c(F)c(F)c(F)c2F)C(=S)N1CCS(=O)c1ccccc1 (stereo unspecified) | 29.9 µM | 34.7 µM | 39.6 µM | 30.6 µM | 32.3 µM | 38.5 µM | 32.5 µM | 53.8 µM | 35.5 µM | 52 µM | – | – | – | – | – | – | – | –
CNNC1=NS(=O)(=O)c2cc(C#N)c(Cl)cc2S1 | > 10 µM | > 10 µM | > 10 µM | > 10 µM | > 10 µM | > 10 µM | > 10 µM | > 10 µM | > 10 µM | > 10 µM | – | – | – | – | – | – | – | –
O=c1[nH]c2ccccc2c(=O)n1/N=C/c1ccc(O)cc1 | > 100 µM | > 100 µM | > 100 µM | > 100 µM | > 100 µM | > 100 µM | > 100 µM | > 100 µM | > 100 µM | > 100 µM | – | – | – | – | – | – | – | –
